Article PMC4979471 (Cell Death Discovery, 2015)
Where two headings read alike, the source gives them in different places.

How the values were obtained:
Assay in all cases: Kinase selectivity, P33-radiolabeled assay
Assay type in all cases: biochemical
Settings in all cases: 10 μM ATP
ABL2/ARG = molecular target: T1, ABL2/ARG (Homo sapiens, UniProt P42684)
T1 construct: purchased Reaction Biology Corp
Method in brief: (§1)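 Duplicate single-concentration testing used 10 μM compound. The ATP concentration was also 10 μM.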

ALK4/ACVR1B = molecular target: T2, ALK4/ACVR1B (Homo sapiens, UniProt P36896)
T2 construct: purchased Reaction Biology Corp
T2 sequence (P36896 24-505): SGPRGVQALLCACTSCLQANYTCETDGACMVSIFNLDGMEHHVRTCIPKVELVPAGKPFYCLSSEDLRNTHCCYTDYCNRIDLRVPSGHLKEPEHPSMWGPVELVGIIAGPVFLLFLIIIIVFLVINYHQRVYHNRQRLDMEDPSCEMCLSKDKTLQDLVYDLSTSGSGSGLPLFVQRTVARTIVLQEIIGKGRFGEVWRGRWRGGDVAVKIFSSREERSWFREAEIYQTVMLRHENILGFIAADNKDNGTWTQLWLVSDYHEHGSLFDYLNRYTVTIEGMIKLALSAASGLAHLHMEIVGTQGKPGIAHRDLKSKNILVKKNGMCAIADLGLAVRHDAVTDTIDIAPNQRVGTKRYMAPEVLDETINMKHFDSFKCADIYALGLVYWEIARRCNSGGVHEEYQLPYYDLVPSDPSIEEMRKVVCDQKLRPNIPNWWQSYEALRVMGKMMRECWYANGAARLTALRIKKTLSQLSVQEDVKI
Method in brief: as §1

CDK1/cyclin B = molecular target: T3, CDK1/cyclin B (Homo sapiens, UniProt P06493)
T3 construct: purchased Reaction Biology Corp
T3 sequence (P06493 whole entry): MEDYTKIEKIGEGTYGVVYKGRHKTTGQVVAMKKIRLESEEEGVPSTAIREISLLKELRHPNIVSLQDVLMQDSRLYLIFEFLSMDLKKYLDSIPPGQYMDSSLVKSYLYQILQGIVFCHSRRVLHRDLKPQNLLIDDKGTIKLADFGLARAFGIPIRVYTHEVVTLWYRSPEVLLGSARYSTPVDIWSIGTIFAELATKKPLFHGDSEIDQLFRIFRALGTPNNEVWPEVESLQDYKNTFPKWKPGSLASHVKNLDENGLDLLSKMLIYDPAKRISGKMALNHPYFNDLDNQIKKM
T3 sequence (P14635 whole entry partner): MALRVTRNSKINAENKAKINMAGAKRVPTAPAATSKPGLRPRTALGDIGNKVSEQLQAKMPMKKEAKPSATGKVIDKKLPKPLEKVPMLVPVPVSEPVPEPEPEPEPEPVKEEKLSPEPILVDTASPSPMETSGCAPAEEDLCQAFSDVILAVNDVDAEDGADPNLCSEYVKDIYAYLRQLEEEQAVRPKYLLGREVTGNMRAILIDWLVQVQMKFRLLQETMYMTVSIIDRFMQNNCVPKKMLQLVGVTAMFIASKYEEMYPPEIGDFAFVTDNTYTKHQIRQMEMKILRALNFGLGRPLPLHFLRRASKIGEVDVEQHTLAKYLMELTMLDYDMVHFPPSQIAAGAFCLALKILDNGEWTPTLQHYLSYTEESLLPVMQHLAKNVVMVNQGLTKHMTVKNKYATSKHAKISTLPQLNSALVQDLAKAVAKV
Method in brief: as §1

CK1epsilon = molecular target: T4, CK1epsilon (Homo sapiens, UniProt P49674)
T4 construct: purchased Reaction Biology Corp
T4 sequence (P49674 whole entry): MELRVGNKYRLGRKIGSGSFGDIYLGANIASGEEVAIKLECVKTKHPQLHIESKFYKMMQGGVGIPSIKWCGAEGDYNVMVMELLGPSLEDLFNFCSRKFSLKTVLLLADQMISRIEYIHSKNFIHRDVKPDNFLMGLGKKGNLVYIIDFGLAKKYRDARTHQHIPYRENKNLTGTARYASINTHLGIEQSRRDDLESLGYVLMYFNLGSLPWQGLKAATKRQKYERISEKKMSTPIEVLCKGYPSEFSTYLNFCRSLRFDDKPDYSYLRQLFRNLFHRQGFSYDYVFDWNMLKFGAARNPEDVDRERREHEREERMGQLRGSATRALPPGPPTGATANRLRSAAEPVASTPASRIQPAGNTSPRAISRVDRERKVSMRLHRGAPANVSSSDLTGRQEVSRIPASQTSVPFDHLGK
Method in brief: as §1

MKK6 = molecular target: T5, MKK6 (Homo sapiens, UniProt P52564)
T5 construct: purchased Reaction Biology Corp
T5 sequence (P52564 1-334): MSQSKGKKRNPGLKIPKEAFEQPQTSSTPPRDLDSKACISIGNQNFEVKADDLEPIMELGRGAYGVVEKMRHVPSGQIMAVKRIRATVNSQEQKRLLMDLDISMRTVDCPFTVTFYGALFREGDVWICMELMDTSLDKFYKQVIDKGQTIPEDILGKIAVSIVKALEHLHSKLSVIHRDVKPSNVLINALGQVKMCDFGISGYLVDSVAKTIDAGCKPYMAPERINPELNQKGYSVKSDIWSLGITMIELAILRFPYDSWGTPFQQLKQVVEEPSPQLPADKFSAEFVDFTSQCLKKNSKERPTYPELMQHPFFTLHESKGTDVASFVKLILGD
Method in brief: as §1

PDK1/PDPK1 = molecular target: T6, PDK1/PDPK1 (Homo sapiens, UniProt O15530)
T6 construct: purchased Reaction Biology Corp
T6 sequence (O15530 1-556): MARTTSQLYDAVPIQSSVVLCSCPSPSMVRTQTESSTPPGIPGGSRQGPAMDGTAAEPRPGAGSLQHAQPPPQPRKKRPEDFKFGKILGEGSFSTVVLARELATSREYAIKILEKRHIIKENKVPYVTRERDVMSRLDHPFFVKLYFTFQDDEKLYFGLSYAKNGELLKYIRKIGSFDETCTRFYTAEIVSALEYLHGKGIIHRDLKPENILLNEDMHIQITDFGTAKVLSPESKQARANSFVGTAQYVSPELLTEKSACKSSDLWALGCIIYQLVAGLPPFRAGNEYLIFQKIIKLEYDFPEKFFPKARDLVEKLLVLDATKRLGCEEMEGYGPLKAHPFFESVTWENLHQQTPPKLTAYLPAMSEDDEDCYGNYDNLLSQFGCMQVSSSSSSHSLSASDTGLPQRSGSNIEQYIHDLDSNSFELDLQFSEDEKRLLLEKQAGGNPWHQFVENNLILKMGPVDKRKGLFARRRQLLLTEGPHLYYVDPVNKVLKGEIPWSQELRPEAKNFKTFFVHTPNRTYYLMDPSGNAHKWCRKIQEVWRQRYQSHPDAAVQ
Method in brief: as §1

PHKg1 = molecular target: T7, PHKg1 (Homo sapiens, UniProt Q16816)
T7 construct: purchased Reaction Biology Corp
T7 sequence (Q16816 whole entry): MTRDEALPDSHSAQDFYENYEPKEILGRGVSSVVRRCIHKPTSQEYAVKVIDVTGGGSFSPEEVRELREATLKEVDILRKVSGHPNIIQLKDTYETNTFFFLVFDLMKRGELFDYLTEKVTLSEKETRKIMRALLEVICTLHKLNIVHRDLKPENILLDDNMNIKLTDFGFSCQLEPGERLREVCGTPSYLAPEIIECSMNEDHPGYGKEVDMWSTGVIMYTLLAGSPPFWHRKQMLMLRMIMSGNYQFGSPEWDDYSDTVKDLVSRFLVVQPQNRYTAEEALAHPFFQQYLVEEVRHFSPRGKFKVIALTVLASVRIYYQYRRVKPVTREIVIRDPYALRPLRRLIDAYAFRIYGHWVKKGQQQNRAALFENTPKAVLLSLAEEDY
Method in brief: as §1

[1] = read-out: % Enzyme Activity (relative to DMSO controls) AVG
[2] = read-out: % Enzyme Activity (relative to DMSO controls) Data 1
[3] = read-out: % Enzyme Activity (relative to DMSO controls) Data 2

T1 sequence (P42684 whole entry): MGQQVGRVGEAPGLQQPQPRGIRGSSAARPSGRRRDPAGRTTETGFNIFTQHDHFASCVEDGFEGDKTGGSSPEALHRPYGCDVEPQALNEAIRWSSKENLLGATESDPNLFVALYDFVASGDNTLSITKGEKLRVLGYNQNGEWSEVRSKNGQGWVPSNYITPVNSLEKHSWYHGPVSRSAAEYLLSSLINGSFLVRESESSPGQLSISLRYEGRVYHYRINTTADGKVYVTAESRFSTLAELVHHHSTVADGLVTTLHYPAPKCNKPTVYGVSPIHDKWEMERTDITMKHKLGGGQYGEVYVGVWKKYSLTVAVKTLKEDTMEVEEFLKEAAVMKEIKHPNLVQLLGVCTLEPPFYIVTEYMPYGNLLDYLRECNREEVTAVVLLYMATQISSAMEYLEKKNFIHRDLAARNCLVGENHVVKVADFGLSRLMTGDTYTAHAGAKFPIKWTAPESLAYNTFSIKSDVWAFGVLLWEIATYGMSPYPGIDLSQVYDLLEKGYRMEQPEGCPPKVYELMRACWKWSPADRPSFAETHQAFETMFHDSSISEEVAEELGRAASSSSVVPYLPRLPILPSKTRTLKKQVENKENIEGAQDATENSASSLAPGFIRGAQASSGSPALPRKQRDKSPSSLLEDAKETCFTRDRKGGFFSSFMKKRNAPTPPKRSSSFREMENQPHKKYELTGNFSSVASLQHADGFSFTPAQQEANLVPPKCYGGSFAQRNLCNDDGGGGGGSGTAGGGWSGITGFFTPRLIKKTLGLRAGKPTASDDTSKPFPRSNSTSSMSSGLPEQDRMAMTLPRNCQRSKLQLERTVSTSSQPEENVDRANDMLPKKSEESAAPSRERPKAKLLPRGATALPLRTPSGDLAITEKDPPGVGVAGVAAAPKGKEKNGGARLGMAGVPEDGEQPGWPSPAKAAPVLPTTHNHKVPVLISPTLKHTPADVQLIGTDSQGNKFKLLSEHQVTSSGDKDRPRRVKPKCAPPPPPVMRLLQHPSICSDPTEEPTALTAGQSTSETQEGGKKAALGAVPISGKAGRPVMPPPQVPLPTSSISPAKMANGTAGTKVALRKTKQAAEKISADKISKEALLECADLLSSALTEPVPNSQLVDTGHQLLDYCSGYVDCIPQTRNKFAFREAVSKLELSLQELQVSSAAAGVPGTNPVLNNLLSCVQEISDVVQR

Structure (SMILES): CC(C)(C)C(=O)N1N=CC[C@H]1c1ccccc1 [GSK′963]
- remaining activity at 10 µM (ABL2/ARG; [1]): 83%
- remaining activity at 10 µM (ABL2/ARG; [2]): 84.7%
- remaining activity at 10 µM (ABL2/ARG; [3]): 81.4%
- remaining activity at 10 µM (ALK4/ACVR1B; [1]): 103%
- remaining activity at 10 µM (ALK4/ACVR1B; [2]): 104%
- remaining activity at 10 µM (ALK4/ACVR1B; [3]): 102%
- remaining activity at 10 µM (CDK1/cyclin B; [1]): 88.6%
- remaining activity at 10 µM (CDK1/cyclin B; [2]): 84%
- remaining activity at 10 µM (CDK1/cyclin B; [3]): 93.2%
- remaining activity at 10 µM (CK1epsilon; [1]): 93.4%
- remaining activity at 10 µM (CK1epsilon; [2]): 96.7%
- remaining activity at 10 µM (CK1epsilon; [3]): 90.2%
- remaining activity at 10 µM (MKK6; [1]): 99.7%
- remaining activity at 10 µM (MKK6; [2]): 101%
- remaining activity at 10 µM (MKK6; [3]): 98.6%
- remaining activity at 10 µM (PDK1/PDPK1; [1]): 109%
- remaining activity at 10 µM (PDK1/PDPK1; [2]): 108%
- remaining activity at 10 µM (PDK1/PDPK1; [3]): 110%
- remaining activity at 10 µM (PHKg1; [1]): 102%
- remaining activity at 10 µM (PHKg1; [2]): 103%
- remaining activity at 10 µM (PHKg1; [3]): 101%
